Consider 21 compounds from ChEMBL document CHEMBL3046008, “Phenolics and their antifungal role in grapevine wood decay: focus on the Botryosphaeriaceae family” (J Agric Food Chem, 2012).

One experiment has as its system Phaeoacremonium minimum. As to the kind of experiment: Antifungal activity against Togninia minima SO21 assessed as susceptibility at 500 uM measured after 1 to 10 days. In kind it is functional, organism-based.
Experiment [1] concerns Diplodia seriata. The experiment is described as follows: Antifungal activity against Diplodia seriata assessed as growth inhibition at 500 uM measured after 1 to 10 days relative to control. In kind it is functional.
For experiment [2], the system named is Neofusicoccum parvum. As to the kind of experiment: Antifungal activity against Neofusicoccum parvum assessed as growth inhibition at 500 uM measured after 1 to 10 days relative to control. In kind it is functional.
Experiment [3] relates to Diplodia seriata. The experiment is described as follows: Antifungal activity against Diplodia seriata assessed as growth inhibition measured after 1 to 10 days. In kind it is functional, organism-based.
The test system of experiment [4] is Eutypa lata. The experiment is described as follows: Antifungal activity against Eutypa lata BX1-10 assessed as growth inhibition at 500 uM measured after 1 to 10 days relative to control. In kind it is functional.
Experiment [5] relates to Phaeomoniella chlamydospora. The experiment is described as follows: Antifungal activity against Phaeomoniella chlamydospora assessed as growth inhibition at 500 uM measured after 1 to 10 days relative to control. In kind it is functional.
Experiment [6] relates to Eutypa lata. The experiment is described as follows: Induction of Eutypa lata BX1-10 growth at 500 uM. In kind it is functional, organism-based.
Experiment [7] has as its system Diplodia seriata. The experiment is described as follows: Antifungal activity against Diplodia seriata assessed as mycelium denser around the initial plug and colonizing measured after 2 days by macroscopic analysis. In kind it is functional, organism-based.
The test system of experiment [8] is Neofusicoccum parvum. The experiment is described as follows: Antifungal activity against Neofusicoccum parvum assessed as growth inhibition measured after 1 to 10 days. In kind it is functional, organism-based.
Experiment [9] deals with Eutypa lata. The experiment is described as follows: Antifungal activity against Eutypa lata BX1-10 assessed as growth inhibition measured after 1 to 10 days. In kind it is functional, organism-based.
Experiment [10] deals with Diplodia seriata. As to the kind of experiment: Antifungal activity against Diplodia seriata assessed as mycelium seemed to be halted measured after 2 days environmental scanning electron microscopy. In kind it is functional, organism-based.

Active and inactive are the calls of the source. No cut-off for these calls is given here.

`Oc1cc(O)c2c(c1)O[C@H](c1ccc(O)c(O)c1)[C@H](O)C2`: in the experiment on Phaeoacremonium minimum, the outcome was inactive.

Take `Oc1ccc([C@H]2Oc3cc(O)cc(/C=C/c4ccc5c(c4)[C@@H](c4cc(O)cc6c4[C@H](c4cc(O)cc(O)c4)[C@@H](c4ccc(O)cc4)O6)[C@H](c4ccc(O)cc4)O5)c3[C@@H]2c2cc(O)cc(O)c2)cc1`: the “growth inhibition (GI)” value in the experiment with Diplodia seriata [1] and in the experiment with Neofusicoccum parvum [2] was “Active” each time. For the same compound, in the experiment on Phaeoacremonium minimum, the outcome was inactive.

By IC50 is commonly meant the concentration that gives 50% inhibition. As for `Oc1cc(O)cc(/C=C/c2ccc(O)c(O)c2)c1` [PICEATANNOL], the “growth inhibition (GI)” value in the experiment with Diplodia seriata [1] and in the experiment on Neofusicoccum parvum [2] was “Active” each time. In the experiment with Phaeoacremonium minimum, the outcome was inactive. Besides, the IC50 in the experiment with Diplodia seriata [3] amounted to 299 µM.

As for `COc1cc(/C=C/C(=O)O)ccc1O` [FERULATE], the “fold change (FC)” value in the experiment on Diplodia seriata [1] worked out at 1.6; in the experiment on Eutypa lata [4], 2.2; in the experiment with Neofusicoccum parvum [2] it was 1.5; in experiment [5], 1.4. Besides, the result in the experiment with Phaeoacremonium minimum was inactive.

Regarding `O=c1c(O)c(-c2ccc(O)c(O)c2)oc2cc(O)cc(O)c12`, the outcome with Phaeoacremonium minimum was inactive. Also, the outcome in the experiment on Eutypa lata [6] was Active.

With `COc1cc(C(=O)O)cc(OC)c1O`, in the experiment with Phaeoacremonium minimum, the result was inactive.

In the case of `Oc1ccc([C@H]2c3c(O)cc(O)cc3[C@H]3c4c(cc(O)cc4[C@@H]2c2cc(/C=C/c4cc(O)cc5c4[C@H](c4cc(O)cc(O)c4)[C@@H](c4ccc(O)cc4)O5)ccc2O)O[C@@H]3c2ccc(O)cc2)cc1`, the “growth inhibition (GI)” value in the experiment with Diplodia seriata [1] and in the experiment on Neofusicoccum parvum [2] was “Active” throughout. In addition, the outcome in the experiment with Phaeoacremonium minimum was inactive.

As for `Oc1ccc(/C=C/c2cc(O)cc(O)c2)cc1` [RESVERATROL], the entries for the “fold change (FC)” value with Diplodia seriata [1], in the experiment with Eutypa lata [4] and with Neofusicoccum parvum [2] were 1.6, 1.7 and 1.1, respectively. The outcome with Phaeoacremonium minimum was inactive.

As for `OC[C@H]1O[C@@H](Oc2cc(O)cc(/C=C/c3ccc(O)cc3)c2)[C@H](O)[C@@H](O)[C@@H]1O`, the “growth inhibition (GI)” value with Diplodia seriata [1] and in the experiment on Neofusicoccum parvum [2] was “Active” in each case. Moreover, the outcome with Phaeoacremonium minimum was inactive.

Regarding `Oc1cc(O)c2c(c1)O[C@H](c1ccc(O)c(O)c1)[C@@H](O)C2`, the outcome in the experiment with Phaeoacremonium minimum was inactive.

For the compound `O=C(O)/C=C/c1ccc(O)c(O)c1`, the outcome with Phaeoacremonium minimum was inactive.

With `COc1cc(C(=O)O)ccc1O`, the outcome with Phaeoacremonium minimum was inactive.

With `Oc1ccc(/C=C/c2cc(O)cc3c2[C@@H](c2cc(O)cc(O)c2)[C@H](c2ccc(O)cc2)O3)cc1` [EPSILON-VINIFERIN], the “growth inhibition (GI)” value in the experiment with Diplodia seriata [1] and in the experiment on Neofusicoccum parvum [2] was “Active” throughout. The result in the experiment on Phaeoacremonium minimum was inactive. Further, the half-inhibitory concentration (IC50) in the experiment on Diplodia seriata [3] turned out to be 260 µM.

Turning to `O=C(O)c1cc(O)c(O)c(O)c1`, the result in the experiment on Phaeoacremonium minimum was inactive.

In the case of `COc1cc(/C=C/c2ccc(O)cc2)cc(OC)c1` [PTEROSTILBENE], the “growth inhibition (GI)” value in the experiment on Diplodia seriata [1] and with Neofusicoccum parvum [2] was “Active” each time. In addition, the result in the experiment with Diplodia seriata [7] and in the experiment on Diplodia seriata [10] was Active. Moreover, the outcome with Phaeoacremonium minimum was inactive. In addition, the IC50 is 250 µM in the experiment with Neofusicoccum parvum [8], 251 µM in the experiment on Eutypa lata [9] and 163 µM with Diplodia seriata [3].

`Oc1ccc([C@H]2c3c(O)cc(O)cc3[C@H]3c4c(cc(O)cc4[C@@H]2O)O[C@@H]3c2ccc(O)cc2)cc1`: the “growth inhibition (GI)” value with Diplodia seriata [1] and in the experiment with Neofusicoccum parvum [2] was “Active” each time. Also, in the experiment on Phaeoacremonium minimum, the result was inactive.

For `O=c1c(O)c(-c2ccc(O)cc2)oc2cc(O)cc(O)c12`, the outcome with Phaeoacremonium minimum was inactive. For the same compound, the “growth inhibition (GI)” value in the experiment with Eutypa lata [4] is “inactive”.

Consider `O=C(O[C@@H]1Cc2c(O)cc(O)cc2O[C@@H]1c1ccc(O)c(O)c1)c1cc(O)c(O)c(O)c1`, for which, in the experiment with Phaeoacremonium minimum, the result was inactive.

Consider `O=C(O)/C=C/c1ccc(O)cc1`, for which the result in the experiment with Phaeoacremonium minimum was inactive.

`COc1cc(/C=C/C(=O)O)cc(OC)c1O`: in the experiment on Phaeoacremonium minimum, the result was inactive.

For the compound `O=C(/C=C/c1ccc(O)c(O)c1)O[C@@H]1C[C@](O)(C(=O)O)C[C@@H](O)[C@H]1O`, the outcome in the experiment on Phaeoacremonium minimum was inactive.
